The text below walks through data of patent US20240317721A1, “PYRAZOLYL DERIVATIVES AS INHIBITORS OF THE KRAS MUTANT PROTEIN” (NOVARTIS AG, priority 2021, published 2024).

Each structure is given as a SMILES string. A value given as a limit tells only on which side of the number the result lay.

Broadly, the IC50 is the point on the concentration scale where inhibition reaches its midpoint.

The target in test [1] is KRasG12C (M1-K169, biotinylated on the N-terminus) (Homo sapiens (Human), UniProt P01116, G12C). Briefly: Covalent competition assay: scintillation proximity assay (SPA) quantifying covalent modification of KRASG12C. The test is classed as binding. The following applies: competition with radiolabeled covalent probe (Compound B/Compound A), 2 hours incubation, 10 nM KRasG12C. Summed up:
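Test compounds compete with a radiolabeled covalent probe for modification of N-terminally biotinylated KRasG12C(M1-K169):GDP, final 10 nM protein, 25 nM radio-ligand, 475 nM unlabelled ligand, 2 h with agitation in 20 mM Tris-HCl pH 7.5, 150 mM NaCl, 0.1 mM MgCl2, 0.01% Tween-20.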
On the technique in general: SPA uses beads or plates that emit light when radiolabelled molecules are held near them.

The next test deals with KRasG12C mutant (Homo sapiens (Human), UniProt P01116, G12C). Briefly: covalent competition assay. The test is classed as binding. The following applies: comparison of the two atropisomers; a(R) vs a(S) configuration.
The target of another test is KRasG12C (Homo sapiens (Human), UniProt P01116, G12C). Description: MS-based assay assessing % modification of KRasG12C over compound concentrations and time points. Format: biochemical. The note with it: non-labeled ligand, internally determined, read-out: (kinact/KI)probe, second order rate constant for modification of KRasG12C.

Take `C=CC(=O)N1CC2(CC(n3nc(N4CCN(C(C)=O)C[C@]4(C)CC)c(-c4c(Cl)c(C)cc5[nH]ncc45)c3C)C2)C1` (single isomer, unassigned) [Example 121a]: the 50% inhibitory concentration (IC50) in test [1] is greater than 5000 nM. The “relative activity of the atropisomers of a pair in the covalent competition assay” value at KRasG12C mutant was “less active atropisomer”.
Consider `C=CC(=O)Nc1ccc(-n2c(C)c(-c3c(C)ccc4[nH]ncc34)c3cccnc32)c(F)c1` [Compound A, N-(3-fluoro-4-(2-methyl-3-(5-methyl-1H-indazol-4-yl)-1H-pyrrolo[2,3-b]pyridin-1-yl)phenyl)acrylamide], for which the kinact/KI on KRasG12C was roughly 5000 M⁻¹ s⁻¹.
For `C=CC(=O)N1CC2(CC(n3nc(N4CCN(C(C)=O)C[C@]4(C)CC)c(-c4c(Cl)c(C)cc5[nH]ncc45)c3C)C2)C1` (single isomer, unassigned) [Example 121b], the IC50 in test [1] worked out at 8 nM. Also, the “relative activity of the atropisomers of a pair in the covalent competition assay” value at KRasG12C mutant is “most active atropisomer”.
As for `C=CC(=O)N1CC2(CC(n3nc(N4CCN(C[C@@H]5COCCO5)C[C@]4(C)COC)c(-c4c(Cl)c(C)cc5[nH]nc(N)c45)c3C)C2)C1` (single isomer, unassigned) [Example 118a], the IC50 in test [1] amounted to 15 nM.
As to `C=CC(=O)N1CC2(CC(n3nc(N4CC[C@@H](CN5CCn6cnnc6C5)CC4(C)C)c(-c4c(Cl)c(Cl)cc5[nH]ncc45)c3C)C2)C1` (single isomer, unassigned) [Example 250b], in test [1], the IC50 came to 8 nM.
The same measure, in the same setting: then `C=CC(=O)N1CC2(CC(n3nc(N4CCN(C(C)=O)CC4)c(-c4c(Cl)ccc5[nH]ncc45)c3C)C2)C1C` (single isomer, unassigned) [Example 197b, 1-(6-(3-(4-acetylpiperazin-1-yl)-4-(5-chloro-1H-indazol-4-yl)-5-methyl-1H-pyrazol-1-yl)-1-methyl-2-azaspiro[3.3]heptan-2-yl)prop-2-en-1-one], with 49700 nM.
